# Experimental data from US9200051B2, “Peptide compound” (TAKEDA PHARMACEUTICAL COMPANY LIMITED, priority 2013, dated 2015).
# pEC50: −log10 of the molar value. Like-named read-outs stand apart in the source and are kept apart here. Square brackets hold non-standard residues; d marks the D form. Peptide text beside a SMILES is read from it. αMeF = C[C@](N)(Cc1ccccc1)C(=O)O; Aib = CC(C)(N)C(=O)O
# Experiments:
# Assay type in all cases: cell-based
# [1] = target: T1, human GLP-1R (Homo sapiens, UniProt P43220); assay: Agonist activity against human GLP-1R, CRE-luciferase reporter assay in hGLP-1R/CRE-luc/CHO-K1 cells
# T1 construct: expressed in transfected cells; host or cells: CHO-K1, plasmids hGLP-1/pIRESneo3 and Cre-luc(Zeo)
# T1 sequence (P43220 24-463): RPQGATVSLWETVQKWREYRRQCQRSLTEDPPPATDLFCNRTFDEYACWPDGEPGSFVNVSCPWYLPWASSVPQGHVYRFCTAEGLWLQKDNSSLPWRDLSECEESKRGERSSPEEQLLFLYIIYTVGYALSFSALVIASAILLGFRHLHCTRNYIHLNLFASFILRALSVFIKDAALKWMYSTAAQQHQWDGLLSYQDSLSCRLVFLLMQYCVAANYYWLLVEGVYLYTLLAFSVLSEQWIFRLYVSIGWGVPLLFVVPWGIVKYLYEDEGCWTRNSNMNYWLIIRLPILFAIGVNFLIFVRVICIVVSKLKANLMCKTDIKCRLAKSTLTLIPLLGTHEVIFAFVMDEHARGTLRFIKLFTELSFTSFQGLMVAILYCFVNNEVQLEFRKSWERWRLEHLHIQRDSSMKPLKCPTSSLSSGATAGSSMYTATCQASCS
# Source text: (§1) Evaluation of agonist activity against human GIPR, human GLP-1R and human glucagon R using rise in intracellular cAMP concentration as index
# Four copies of the cAMP response sequence and the Zeocin resistance gene were introduced to pGL3(R2.2)-Basic Vector (Promega) to construct Cre-luc(Zeo) reporter plasmid.
# The human GLP-1R gene having a sequence identical to the sequence of GenBank Accession No. NM_002062 was cloned into pIRESneo3 vector to prepare hGLP-1/pIRESneo3.
# The Cre-luc(Zeo) obtained in (3) and the plasmid hGLP-1/pIRESneo3 obtained in (5) were introduced to CHO-K1 cells to obtain transformants. Next, a cell line induced to express luciferase, i.e., hGLP-1R/CRE-luc/CHO-K1 cells, were selected from the obtained transformants by the addition of GLP-1.
# (§2) The hGIPR/CRE-LUC/CHO-K1 cells were inoculated at a cell density of 25 μL/well (5×10^4 cells/well) to a 384-well white plate (Corning), and cultured overnight in Ham F12 medium containing 10% fetal bovine serum, 100 U/mL penicillin and 100 μg/mL streptomycin in a CO2 incubator of 37° C. A medium containing a test compound was added at a concentration of 5 μL/well to the cells, and the resultant cells were incubated for 4 hours in a CO2 incubator of 37° C. to give the final concentration of 1 μM. PicaGene LT7.5 (Toyo Ink Co., Ltd.) was added thereto at a concentration of 30 μL/well, and the mixture was shaken with light shielded. After 30 minutes, the luciferase activity was measured using a plate reader Envision (PerkinElmer). The luciferase activity in the presence of 10 nM GIP was defined as 100%, and the luciferase activity from the addition of DMSO instead of the test compound was defined as 0%. The GIPR agonist activity was calculated with a rise in intracellular cAMP concentration as an index.
# The GLP-1R agonist activity was assayed in the same way as above using the hGLP-1R/CRE-luc/CHO-K1 cells. The luciferase activity in the presence of 10 nM GLP-1 was defined as 100%, and the luciferase activity from the addition of DMSO instead of the test compound was defined as 0%. The GLP-1R agonist activity was calculated with a rise in intracellular cAMP concentration as an index.
# [2] = target: T2, human glucagon R (Homo sapiens, UniProt P47871); assay: Agonist activity against human glucagon R, CRE-luciferase reporter assay in hGlucagonR/CRE-LUC/CHO-K1 cells
# T2 construct: expressed in transfected cells; host or cells: CHO-K1 (CRE-LUC/CHO-K1), plasmid hGlucagonR/pMSRα-neo
# T2 sequence (P47871 26-477): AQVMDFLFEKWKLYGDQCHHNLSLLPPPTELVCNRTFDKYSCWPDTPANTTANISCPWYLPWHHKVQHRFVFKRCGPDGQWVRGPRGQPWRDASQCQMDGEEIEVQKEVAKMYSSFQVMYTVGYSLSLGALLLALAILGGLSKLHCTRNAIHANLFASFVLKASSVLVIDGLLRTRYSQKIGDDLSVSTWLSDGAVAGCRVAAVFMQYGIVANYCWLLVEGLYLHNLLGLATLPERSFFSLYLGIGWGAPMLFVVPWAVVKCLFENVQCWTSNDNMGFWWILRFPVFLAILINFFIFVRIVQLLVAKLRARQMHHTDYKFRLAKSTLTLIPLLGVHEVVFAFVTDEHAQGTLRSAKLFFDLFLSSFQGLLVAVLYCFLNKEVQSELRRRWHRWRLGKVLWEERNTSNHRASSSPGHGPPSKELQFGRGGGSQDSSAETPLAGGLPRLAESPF
# Source text: as §1
# (§3) The luciferase reporter gene having an upstream cAMP response sequence was introduced to CHO-K1 cells to construct CRE-LUC/CHO-K1 cells.
# The human glucagon R gene having a sequence identical to the sequence of GenBank Accession No. NM_000160 was cloned into pMSRα-neo vector to prepare hGlucagonR/pMSRα-neo.
# The plasmid hGlucagonR/pMSRα-neo obtained in (7) was introduced to the CRE-LUC/CHO-K1 cells obtained in (2) to obtain transformants. Next, a cell line induced to express luciferase, i.e., hGlucagonR/CRE-LUC/CHO-K1 cells, were selected from the obtained transformants by the addition of glucagon.
# as §2
# The glucagon R agonist activity was assayed in the same way as above using the hGlucagonR/CRE-LUC/CHO-K1 cells. The luciferase activity in the presence of 10 nM glucagon was defined as 100%, and the luciferase activity from the addition of DMSO instead of the test compound was defined as 0%. The glucagon agonist activity was calculated with a rise in intracellular cAMP concentration as an index.
# [3] = target: T3, human GIPR (Homo sapiens, UniProt P48546); assay: Agonist activity against human GIPR, CRE-luciferase reporter assay (rise in intracellular cAMP) in hGIPR/CRE-LUC/CHO-K1 cells
# T3 construct: expressed in transfected cells; host or cells: CHO-K1 (CRE-LUC/CHO-K1), plasmid hGIPR/pMSRα-neo
# T3 sequence (P48546 22-466): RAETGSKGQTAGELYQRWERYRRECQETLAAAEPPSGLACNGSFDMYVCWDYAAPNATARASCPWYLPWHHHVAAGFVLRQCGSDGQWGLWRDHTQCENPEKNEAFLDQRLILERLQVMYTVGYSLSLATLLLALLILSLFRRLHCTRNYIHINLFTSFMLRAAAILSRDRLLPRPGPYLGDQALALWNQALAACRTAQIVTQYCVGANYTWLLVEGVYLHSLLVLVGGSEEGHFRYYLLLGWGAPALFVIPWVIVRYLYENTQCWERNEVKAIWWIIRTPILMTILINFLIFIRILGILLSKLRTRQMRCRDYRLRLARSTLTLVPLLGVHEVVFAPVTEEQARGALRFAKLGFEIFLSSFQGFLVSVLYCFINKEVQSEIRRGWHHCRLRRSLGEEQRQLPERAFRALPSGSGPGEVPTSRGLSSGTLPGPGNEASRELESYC
# Source text: as §1
# The human GIPR gene having a sequence identical to the sequence of GenBank Accession No. U39231 was cloned into pMSRα-neo vector to prepare hGIPR/pMSRα-neo.
# as §3
# The plasmid hGIPR/pMSRα-neo obtained in (1) was introduced to the CRE-LUC/CHO-K1 cells obtained in (2) to obtain transformants. Next, a cell line induced to express luciferase, i.e., hGIPR/CRE-LUC/CHO-K1 cells, were selected from the obtained transformants by the addition of GIP.
# as §2
Compound,pEC50 [1],pEC50 [2],pEC50 [3],"pEC50 ([1]; hGLP-1R/CRE-luc/CHO-K1 cells, 4 hours incubation, 10 nM GLP-1 = 100%, read-out: Agonist activity (EC50) hGLP-1R)","pEC50 ([2]; hGlucagonR/CRE-LUC/CHO-K1 cells, 4 hours incubation, 10 nM glucagon = 100%, read-out: Agonist activity (EC50) hGCGR)","pEC50 ([3]; hGIPR/CRE-LUC/CHO-K1 cells, 4 hours incubation, 10 nM GIP = 100%, read-out: Agonist activity (EC50) hGIPR)"
CC[C@H](C)[C@H](NC(=O)C(C)(C)NC(=O)[C@H](Cc1ccc(O)cc1)NC(=O)[C@H](CC(=O)O)NC(=O)[C@H](CO)NC(=O)[C@@H](NC(=O)[C@](C)(Cc1ccccc1)NC(=O)[C@@H](NC(=O)CNC(=O)[C@H](CCC(=O)O)NC(=O)C(C)(C)NC(=O)[C@@H](N)Cc1ccc(O)cc1)[C@@H](C)O)[C@@H](C)O)C(=O)NC(C)(C)C(=O)N[C@@H](CC(C)C)C(=O)N[C@@H](CC(=O)O)C(=O)N[C@@H](CCCCN)C(=O)N[C@@H](CCC(N)=O)C(=O)N[C@@H](C)C(=O)N[C@@H](CCC(N)=O)C(=O)N[C@@H](C)C(=O)N[C@@H](CCC(=O)O)C(=O)N[C@@H](Cc1ccccc1)C(=O)N[C@H](C(=O)N[C@@H](CCCCN)C(=O)N[C@@H](Cc1c[nH]c2ccccc12)C(=O)N[C@@H](CC(C)C)C(=O)N[C@@H](CC(C)C)C(=O)N[C@@H](CCCCN)C(=O)NCC(=O)NCC(=O)N1CCC[C@H]1C(=O)N[C@@H](CO)C(=O)N[C@@H](CO)C(=O)NCC(=O)N[C@@H](C)C(=O)N1CCC[C@H]1C(=O)N1CCC[C@H]1C(=O)N1CCC[C@H]1C(=O)N[C@@H](CO)C(N)=O)C(C)C [Example 6] (H-Y[Aib]EGT[αMeF]TSDY[Aib]I[Aib]LDKQAQAEFVKWLLKGGPSSGAPPPS-NH2),10.80,< 6.00,11.14,–,–,–
CC[C@H](C)[C@H](NC(=O)[C@H](C)NC(=O)[C@H](Cc1ccc(O)cc1)NC(=O)[C@H](CC(=O)O)NC(=O)[C@H](CO)NC(=O)[C@@H](NC(=O)[C@](C)(Cc1ccccc1)NC(=O)[C@@H](NC(=O)CNC(=O)[C@H](CCC(=O)O)NC(=O)C(C)(C)NC(=O)[C@@H](N)Cc1ccc(O)cc1)[C@@H](C)O)[C@@H](C)O)C(=O)NC(C)(C)C(=O)N[C@@H](CC(C)C)C(=O)N[C@@H](CC(=O)O)C(=O)N[C@@H](CCCCN)C(=O)N[C@@H](CCC(N)=O)C(=O)N[C@@H](C)C(=O)N[C@@H](CCC(N)=O)C(=O)N[C@@H](CO)C(=O)N[C@@H](CCC(=O)O)C(=O)N[C@@H](Cc1ccccc1)C(=O)N[C@H](C(=O)N[C@@H](CCCCN)C(=O)N[C@@H](Cc1c[nH]c2ccccc12)C(=O)N[C@@H](CC(C)C)C(=O)N[C@@H](CC(C)C)C(=O)N[C@@H](CCCCN)C(=O)NCC(=O)NCC(=O)N1CCC[C@H]1C(=O)N[C@@H](CO)C(=O)N[C@@H](CO)C(=O)NCC(=O)N[C@@H](C)C(=O)N1CCC[C@H]1C(=O)N1CCC[C@H]1C(=O)N1CCC[C@H]1C(=O)N[C@@H](CO)C(N)=O)C(C)C [Example 7] (H-Y[Aib]EGT[αMeF]TSDYAI[Aib]LDKQAQSEFVKWLLKGGPSSGAPPPS-NH2),–,–,–,11.06,< 6.00,11.16
CC[C@H](C)[C@H](NC(=O)C(C)(C)NC(=O)[C@H](Cc1ccc(O)cc1)NC(=O)[C@H](CC(=O)O)NC(=O)[C@H](CO)NC(=O)[C@@H](NC(=O)[C@](C)(Cc1ccccc1)NC(=O)[C@@H](NC(=O)CNC(=O)[C@H](CCC(=O)O)NC(=O)C(C)(C)NC(=O)[C@@H](N)Cc1ccc(O)cc1)[C@@H](C)O)[C@@H](C)O)C(=O)NC(C)(C)C(=O)N[C@@H](CC(C)C)C(=O)N[C@@H](CC(=O)O)C(=O)N[C@@H](CCCCN)C(=O)N[C@@H](CCC(N)=O)C(=O)N[C@@H](C)C(=O)N[C@@H](CCC(N)=O)C(=O)N[C@@H](CO)C(=O)N[C@@H](CCC(=O)O)C(=O)N[C@@H](Cc1ccccc1)C(=O)N[C@H](C(=O)N[C@@H](CCCCN)C(=O)N[C@@H](Cc1c[nH]c2ccccc12)C(=O)N[C@@H](CC(C)C)C(=O)N[C@@H](CC(C)C)C(=O)N[C@@H](CCCCN)C(=O)NCC(=O)NCC(=O)N1CCC[C@H]1C(=O)N[C@@H](CO)C(=O)N[C@@H](CO)C(=O)NCC(=O)N[C@@H](C)C(=O)N1CCC[C@H]1C(=O)N1CCC[C@H]1C(=O)N1CCC[C@H]1C(=O)N[C@@H](CO)C(N)=O)C(C)C [Example 8] (H-Y[Aib]EGT[αMeF]TSDY[Aib]I[Aib]LDKQAQSEFVKWLLKGGPSSGAPPPS-NH2),10.85,< 6.00,11.10,–,–,–
CC(C)C[C@H](NC(=O)[C@H](CC(C)C)NC(=O)[C@H](Cc1c[nH]c2ccccc12)NC(=O)[C@H](CCCCN)NC(=O)[C@@H](NC(=O)[C@H](Cc1ccccc1)NC(=O)[C@H](CCC(=O)O)NC(=O)[C@H](C)NC(=O)[C@H](CCC(N)=O)NC(=O)[C@H](C)NC(=O)[C@H](CCC(N)=O)NC(=O)[C@H](CCCCN)NC(=O)[C@H](CC(=O)O)NC(=O)[C@H](CC(C)C)NC(=O)C(C)(C)NC(=O)[C@H](CCCCN)NC(=O)C(C)(C)NC(=O)[C@H](Cc1ccc(O)cc1)NC(=O)[C@H](CC(=O)O)NC(=O)[C@H](CO)NC(=O)[C@@H](NC(=O)[C@](C)(Cc1ccccc1)NC(=O)[C@@H](NC(=O)CNC(=O)[C@H](CCC(=O)O)NC(=O)C(C)(C)NC(=O)[C@@H](N)Cc1ccc(O)cc1)[C@@H](C)O)[C@@H](C)O)C(C)C)C(=O)N[C@@H](CCCCN)C(=O)NCC(=O)NCC(=O)N1CCC[C@H]1C(=O)N[C@@H](CO)C(=O)N[C@@H](CO)C(=O)NCC(=O)N[C@@H](C)C(=O)N1CCC[C@H]1C(=O)N1CCC[C@H]1C(=O)N1CCC[C@H]1C(=O)N[C@@H](CO)C(=O)N[C@@H](CCCCN)C(N)=O [Example 9] (H-Y[Aib]EGT[αMeF]TSDY[Aib]K[Aib]LDKQAQAEFVKWLLKGGPSSGAPPPSK-NH2),10.82,< 6.00,11.10,–,–,–
CC(C)C[C@H](NC(=O)[C@H](CC(C)C)NC(=O)[C@H](Cc1c[nH]c2ccccc12)NC(=O)[C@H](CCCCN)NC(=O)[C@@H](NC(=O)[C@H](Cc1ccccc1)NC(=O)[C@H](CCC(=O)O)NC(=O)[C@H](C)NC(=O)[C@H](CCC(N)=O)NC(=O)[C@H](C)NC(=O)[C@H](CCC(N)=O)NC(=O)[C@H](CCCCN)NC(=O)[C@H](CC(=O)O)NC(=O)[C@H](CC(C)C)NC(=O)C(C)(C)NC(=O)[C@H](C)NC(=O)C(C)(C)NC(=O)[C@H](Cc1ccc(O)cc1)NC(=O)[C@H](CC(=O)O)NC(=O)[C@H](CO)NC(=O)[C@@H](NC(=O)[C@](C)(Cc1ccccc1)NC(=O)[C@@H](NC(=O)CNC(=O)[C@H](CCC(=O)O)NC(=O)C(C)(C)NC(=O)[C@@H](N)Cc1ccc(O)cc1)[C@@H](C)O)[C@@H](C)O)C(C)C)C(=O)N[C@@H](CCCCN)C(=O)NCC(=O)NCC(=O)N1CCC[C@H]1C(=O)N[C@@H](CO)C(=O)N[C@@H](CO)C(=O)NCC(=O)N[C@@H](C)C(=O)N1CCC[C@H]1C(=O)N1CCC[C@H]1C(=O)N1CCC[C@H]1C(=O)N[C@@H](CO)C(=O)N[C@@H](CCCCN)C(N)=O [Example 10] (H-Y[Aib]EGT[αMeF]TSDY[Aib]A[Aib]LDKQAQAEFVKWLLKGGPSSGAPPPSK-NH2),11.08,< 6.00,11.27,–,–,–
